In US20110158980A1, “METHODS TO TREAT AND SCREEN FOR AGENTS TO TREAT OBESITY” (TRUSTEES OF TUFTS COLLEGE, priority 2008, published 2011):

System: 3T3-L1 adipocytes
Assay: Metabolic flux analysis (stoichiometric model) of adipocyte intermediary metabolism
Assay type: cell-based
Protocol: 3T3-L1 preadipocytes were plated onto 24-well plates and expanded in preadipocyte growth medium consisting of DMEM supplemented with calf serum (10% v/v), penicillin and streptomycin. Medium was replenished every other day. Two days post-confluence, the cells were induced to differentiate using an adipogenic cocktail (1 μg/ml insulin, 0.5 mM isobutylmethylxanthine, and 1 μM dexamethasone) added to a basal medium (DMEM with 10% fetal bovine serum and penicillin/streptomycin). After 48 hrs, the first medium was replaced with a second induction medium consisting of the basal adipocyte medium supplemented with only insulin. […] This basal medium was replenished every other day during the remainder of the culture experiments.
A stoichiometric model of adipocyte central carbon metabolism was constructed as described previously (Si Y, Yoon J, Lee K. American journal of physiology 2007; 292:E1637-46). The model consisted of the major pathways of central carbon metabolism (Table 1). Intracellular fluxes were estimated by solving a constrained non-linear optimization problem with stoichiometric and thermodynamic constraints (Nolan R P, Fenley A P, Lee K. Metab Eng 2006; 8:30-45).

[1] = PA 10 mM, day 12 post-induction

O=C(O)Cc1ccccc1 [phenylacetate]
Flux RXN 65 Mitochondrial exchange: 2-Oxoglutarate in, Malate out (PA 5 mM, day 12 post-induction): 36.9 ± 7.3 mmol/g-DNA/2 days | Flux RXN 66 Mitochondrial exchange: Pi in, Malate out (PA 5 mM, day 12 post-induction): 79.9 ± 9.7 mmol/g-DNA/2 days | Flux RXN 1 Glycolysis: Glucose + ATP = Glucose 6-P + ADP [1]: 341.0 ± 14.4 mmol/g-DNA/2 days | Flux RXN 3 Glycolysis: Fructose 6-P + ATP = Glyceraldehyde 3-P + Glycerone-P + ADP [1]: 332.9 ± 13.7 mmol/g-DNA/2 days | Flux RXN 4 Glycolysis: Glycerone-P = Glyceraldehyde 3-P [1]: 309.4 ± 13.0 mmol/g-DNA/2 days | Flux RXN 5 Glycolysis: Glyceraldehyde 3-P + NAD+ + ADP + Pi = P-Enolpyruvate + ATP + H2O [1]: 650.5 ± 26.0 mmol/g-DNA/2 days | Flux RXN 6 Glycolysis: P-Enolpyruvate + ADP + H+ = Pyruvate + ATP [1]: 725.6 ± 35.8 mmol/g-DNA/2 days | Flux RXN 7 Glycolysis: Pyruvate + NADH + H+ = Lactate + NAD+ [1]: 427.8 ± 9.4 mmol/g-DNA/2 days | Flux RXN 8 Pentose phosphate pathway: Glucose 6-P + 2 NADP+ + H2O = Ribulose 5-P + CO2 + 2 NADPH + 2 H+ [1]: 24.3 ± 18.5^ mmol/g-DNA/2 days | Flux RXN 9 Pentose phosphate pathway: 3 Ribulose 5-P = 2 Fructose 6-P + Glyceraldehyde 3-P [1]: 8.1 ± 6.2^ mmol/g-DNA/2 days | Flux RXN 10 TCA cycle (mitochondria) (PDC) [1]: 233.7 ± 25.1 mmol/g-DNA/2 days | Flux RXN 12 TCA cycle (mitochondria) [1]: 132.2 ± 19.3 mmol/g-DNA/2 days | Flux RXN 13 TCA cycle (mitochondria) [1]: 158.6 ± 26.1 mmol/g-DNA/2 days | Flux RXN 14 TCA cycle (mitochondria) [1]: 169.9 ± 26.6 mmol/g-DNA/2 days | Flux RXN 15 TCA cycle (mitochondria) [1]: 170.1 ± 27.0 mmol/g-DNA/2 days | Flux RXN 16 TCA cycle (mitochondria) [1]: 110.2 ± 17.8 mmol/g-DNA/2 days | Flux RXN 17 TCA cycle: Citrate + CoA + ATP = Acetyl-CoA + Oxaloacetate + ADP + Pi [1]: 75.1 ± 16.4 mmol/g-DNA/2 days | Flux RXN 18 TCA cycle: Oxaloacetate + NADH + H+ = Malate + NAD+ [1]: 0.0 ± 0.0^ mmol/g-DNA/2 days | Flux RXN 19 TCA cycle: Malate + NADP+ = Pyruvate + CO2 + NADPH [1]: 59.9 ± 9.2 mmol/g-DNA/2 days | Flux RXN 20 TCA cycle: Citrate + NADP+ = 2-Oxoglutarate + CO2 + NADPH + H+ [1]: 26.4 ± 6.9 mmol/g-DNA/2 days | Flux RXN 21 TCA cycle: Oxaloacetate + ATP = P-Enolpyruvate + CO2 + ADP [1]: 75.1 ± 16.4 mmol/g-DNA/2 days | Flux RXN 22 Oxidative phosphorylation (NADH + 0.5 O2) [1]: 213.9 ± 89.2 mmol/g-DNA/2 days | Flux RXN 23 Oxidative phosphorylation (FADH2 + 0.5 O2) [1]: 189.1 ± 27.3 mmol/g-DNA/2 days | Flux RXN 24 Palmitate biosynthesis [1]: 9.4 ± 2.0 mmol/g-DNA/2 days | Flux RXN 25 Tripalmitoylglycerol biosynthesis: Glycerone-P + 3 Palmitate to Tripalmitoylglycerol [1]: 23.5 ± 3.0 mmol/g-DNA/2 days | Flux RXN 26 Tripalmitoylglycerol + 3 H2O = Glycerol + 3 Palmitate [1]: 20.6 ± 2.4 mmol/g-DNA/2 days | Flux RXN 27 Tripalmitoylglycerol accumulation [1]: 2.9 ± 0.6 mmol/g-DNA/2 days | Flux RXN 28 Metabolism of ketone bodies [1]: 7.8 ± 0.2 mmol/g-DNA/2 days | Flux RXN 29 Metabolism of ketone bodies [1]: 0.0 ± 0.0^ mmol/g-DNA/2 days | Flux RXN 30 Metabolism of ketone bodies (to 3-Hydroxybutyrate) [1]: 15.9 ± 0.7 mmol/g-DNA/2 days | Flux RXN 31 Amino acid metabolism: Pyruvate + NH4+ + NADPH = Alanine [1]: 0.5 ± 0.1 mmol/g-DNA/2 days | Flux RXN 32 Amino acid metabolism: Aspartate + NH4+ = Asparagine [1]: 2.9 ± 0.2 mmol/g-DNA/2 days | Flux RXN 33 Amino acid metabolism: Aspartate = Oxaloacetate + NH4+ + NADH [1]: 0.0 ± 0.0^ mmol/g-DNA/2 days | Flux RXN 34 Amino acid metabolism: Cysteine = Pyruvate + NH4+ + NADH [1]: 0.0 ± 0.0^ mmol/g-DNA/2 days | Flux RXN 35 Amino acid metabolism: Glutamate = 2-Oxoglutarate + NH4+ + NADH [1]: 0.0 ± 0.0 mmol/g-DNA/2 days | Flux RXN 36 Amino acid metabolism: Glutamate + NH4+ + ATP = Glutamine [1]: 0.0 ± 0.0 mmol/g-DNA/2 days | Flux RXN 37 Amino acid metabolism: Serine + THF = Glycine [1]: 6.2 ± 0.4^ mmol/g-DNA/2 days | Flux RXN 38 Amino acid metabolism: Histidine + THF = Glutamate + NH4+ [1]: 0.5 ± 0.1 mmol/g-DNA/2 days | Flux RXN 39 Amino acid metabolism: Isoleucine + 2 CoA [1]: 7.5 ± 0.2 mmol/g-DNA/2 days | Flux RXN 40 Amino acid metabolism: Leucine + CoA + CO2 + ATP [1]: 7.9 ± 0.2 mmol/g-DNA/2 days | Flux RXN 41 Amino acid metabolism: Lysine = 2-Oxoadipate + 2 NH4+ + 3 NADH [1]: 0.0 ± 0.0^ mmol/g-DNA/2 days | Flux RXN 42 Amino acid metabolism: 2-Oxoadipate + CoA [1]: 0.0 ± 0.0^ mmol/g-DNA/2 days | Flux RXN 43 Amino acid metabolism: Methionine + Serine + ATP + CoA + THF [1]: 0.0 ± 0.0^ mmol/g-DNA/2 days | Flux RXN 44 Amino acid metabolism: Phenylalanine + O2 + NADH = Tyrosine [1]: 0.1 ± 0.3^ mmol/g-DNA/2 days | Flux RXN 45 Amino acid metabolism: Glutamate + ATP + 2 NADPH = Proline [1]: 1.5 ± 0.1 mmol/g-DNA/2 days | Flux RXN 46 Amino acid metabolism: Serine = Pyruvate + NH4+ [1]: 0.0 ± 0.0^ mmol/g-DNA/2 days | Flux RXN 47 Amino acid metabolism: Threonine + CoA to Glycine [1]: 0.2 ± 0.2 mmol/g-DNA/2 days | Flux RXN 48 Amino acid metabolism: Tryptophan + 3 O2 + NADPH = 2-Oxoadipate + Alanine + CO2 + NH4+ [1]: 0.0 ± 0.0^ mmol/g-DNA/2 days | Flux RXN 49 Amino acid metabolism: Tyrosine + 2 O2 [1]: 0.2 ± 0.5^ mmol/g-DNA/2 days | Flux RXN 50 Amino acid metabolism: Valine + CoA [1]: 3.8 ± 0.4 mmol/g-DNA/2 days | Flux RXN 51 Plasma exchange: Palmitate [1]: 0.8 ± 0.1 mmol/g-DNA/2 days | Flux RXN 52 Plasma exchange: Acetoacetate [1]: 0.0 ± 0.1 mmol/g-DNA/2 days | Flux RXN 53 Plasma exchange: Alanine [1]: 0.5 ± 0.1 mmol/g-DNA/2 days | Flux RXN 54 Plasma exchange: Aspartate [1]: 2.9 ± 0.2 mmol/g-DNA/2 days | Flux RXN 55 Plasma exchange: Cysteine [1]: 0.0 ± 0.0^ mmol/g-DNA/2 days | Flux RXN 56 Plasma exchange: Glutamate [1]: 0.9 ± 0.1 mmol/g-DNA/2 days | Flux RXN 57 Plasma exchange: Glycine [1]: 6.4 ± 0.4 mmol/g-DNA/2 days | Flux RXN 58 Plasma exchange: Serine [1]: 6.2 ± 0.4^ mmol/g-DNA/2 days | Flux RXN 59 Plasma exchange: Tyrosine [1]: 0.1 ± 0.2^ mmol/g-DNA/2 days | Flux RXN 60 Plasma exchange: O2 (calculated oxygen uptake rate) [1]: 202.1 ±59.1 *^ mmol/g-DNA/2 days | Flux RXN 61 Plasma exchange: CO2 [1]: 582.8 ± 66.5 mmol/g-DNA/2 days | Flux RXN 62 Plasma exchange: NH4+ [1]: 16.5 ± 1.3 mmol/g-DNA/2 days | Flux RXN 63 Mitochondrial exchange: Pyruvate [1]: 357.2 ± 37.5 mmol/g-DNA/2 days | Flux RXN 64 Mitochondrial exchange: Malate in, Citrate out [1]: 101.5 ± 16.0 mmol/g-DNA/2 days | Flux RXN 65 Mitochondrial exchange: 2-Oxoglutarate in, Malate out [1]: 26.4 ± 6.9 mmol/g-DNA/2 days | Flux RXN 66 Mitochondrial exchange: Pi in, Malate out [1]: 59.9 ± 9.2 mmol/g-DNA/2 days | Decrease of flux through phosphoenolpyruvate carboxykinase (phenylacetate): 40% | Reduction of de novo fatty acid synthesis (phenylacetate): ~40% | Reduction of triglyceride accumulation (phenylacetate): 40% | Increase of flux through glycolysis (phenylacetate (5 and 10 mM), day 12 post-induction): 15˜60% | Decrease of total flux of pyruvate into the mitochondrial reactions (phenylacetate at the higher concentration (10 mM)): 29% | Decrease of flux through the PPP (phenylacetate, noted only for the 5 mM condition): 83% | Increase of fluxes through other lipogenic reactions (including esterification) (phenylacetate, higher concentration having the larger effect): 64˜75%
